Test results as given in the supplement of paper PMC3621838.
± gives the standard deviation of the averaged measurements.

Tested on: HEK293 NF-kB-luciferase reporter cells
Assay: NF-kB luciferase reporter activity, robust Z-score vs plate median (robust Z-score (log luminescence)); higher = stronger NF-kB reporter activation
Conditions: TNF treatment time 8.5 h, transfection time 72 h
Description: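 Primary screen of an Ambion Pre-miR miRNA mimic library (miRBase v8.0, 1.6 pmol/well, 384-well, duplicate) reverse-transfected into HEK293 cells stably expressing a 5x NF-kB firefly luciferase reporter. After 72 h the cells were treated with vehicle or TNF (40 ng/mL) for 8.5 h and luminescence was read (BriteLite). Raw luminescence was log-transformed and converted to a robust Z-score per plate: (x - plate median)/plate MAD. Sequence given is the mature miRNA strand of the double-stranded mimic.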

Sequence	NF-kB luciferase reporter activity (TNF 0 ng/mL)	NF-kB luciferase reporter activity (TNF 40 ng/mL)
UUCUCCAAAAGAAAGCACUUUCUG	-0.171 ± 0.24	-1.816 ± 0.017
UCCCUGUCCUCCAGGAGCUCA	0.322 ± 0.46	0.69 ± 0.39
CUCUAGAGGGAAGCACUUUCUCU	1.17 ± 0.88	0.571 ± 0.12
CUCUUGAGGGAAGCACUUUCUGUU	1.14 ± 0.36	0.555 ± 0.059
GGAGAAAUUAUCCUUGGUGUGU	0.189 ± 0.13	0.256 ± 0.16
UAAGGCACCCUUCUGAGUAGA	-1.29 ± 0.15	-3.27 ± 0.24
UGUGACAGAUUGAUAACUGAAA	-0.287 ± 0.28	-2.016 ± 0.016
CCUAGUAGGUGUCCAGUAAGUGU	-0.0662 ± 0.93	0.432 ± 0.025
AUUGACACUUCUGUGAGUAG	-0.231 ± 0.69	-0.474 ± 0.021
AUCCUUGCUAUCUGGGUGCUA	-0.588 ± 0.71	0.413 ± 0.069
CUGGACUUAGGGUCAGAAGGCC	0.0764 ± 0.11	0.411 ± 0.022
AUCAUAGAGGAAAAUCCACGU	-0.604 ± 0.17	-0.743 ± 0.14
AAAAUGGUUCCCUUUAGAGUGUU	-1.7 ± 0.2	-2.14 ± 0.057
UAGCAGCGGGAACAGUUCUGCAG	0.878 ± 0.18	0.834 ± 0.021
UGUUUGCAGAGGAAACUGAGAC	1.44 ± 0.076	-1.26 ± 0.051
UAUGUGCCUUUGGACUACAUCG	-0.472 ± 0.26	-1.23 ± 0.037
UCCAGCUCCUAUAUGAUGCCUUU	3.61 ± 0.75	-0.188 ± 0.11
UAACAGUCUCCAGUCACGGCC	-0.0296 ± 0.44	-0.939 ± 0.1
CUCCAGAGGGAAGUACUUUCU	-1.38 ± 1.7	-1.33 ± 0.13
AAUCCUUUGUCCCUGGGUGAGA	0.375 ± 0.22	0.638 ± 0.062
CAGUGCAAUGAUGAAAGGGCAU	1.21 ± 0.24	1.237 ± 0.0041
CCUCUAGAUGGAAGCACUGUCU	-0.0988 ± 0.27	0.749 ± 0.033

Sequence	NF-kB luciferase reporter activity (TNF 0 ng/mL)	NF-kB luciferase reporter activity (TNF 40 ng/mL)
GGUAGAUUCUCCUUCUAUGAG	-0.702 ± 0.69	-1.25 ± 0.063
CUGGAUGGCUCCUCCAUGUCU	0.547 ± 0.21	-0.772 ± 0.095
CAAAGUGCCUCCCUUUAGAGUGU	0.645 ± 0.51	0.811 ± 0.028
CAUCUUACCGGACAGUGCUGGA	-1.28 ± 0.79	-0.895 ± 0.12
UCCCUGAGACCCUUUAACCUGUG	0.417 ± 0.12	1.32 ± 0.15
AAUCGUACAGGGUCAUCCACUU	-0.187 ± 0.52	0.638 ± 0.17
GUGCCUACUGAGCUGAUAUCAGU	-0.791 ± 0.86	0.339 ± 0.13
UAAACGUGGAUGUACUUGCUUU	-0.000139 ± 0.48	0.83 ± 0.16
UCGUGCAUCCCUUUAGAGUGUU	1.73 ± 0.3	1.07 ± 0.079
AAACCGUUACCAUUACUGAGUUU	1.13 ± 0.58	0.947 ± 0.054
GUCAACACUUGCUGGUUUCCUC	-0.0513 ± 0.073	-0.799 ± 0.029
UAGGUAGUUUCCUGUUGUUGG	-1.2 ± 0.5	-0.972 ± 0.18
UCUACAGUGCACGUGUCU	-1.16 ± 0.34	-0.417 ± 0.031
UAACACUGUCUGGUAAAGAUGG	0.999 ± 0.35	1.415 ± 0.012
ACUUUAACAUGGAAGUGCUUUCU	-0.37 ± 0.4	0.272 ± 0.026
AUCACACAAAGGCAACUUUUGU	-0.634 ± 0.41	-0.131 ± 0.049
CAGUGCAAUAGUAUUGUCAAAGC	0.753 ± 0.32	0.85 ± 0.028
GCCCCUGGGCCUAUCCUAGAA	1.22 ± 0.89	0.489 ± 0.046
UGGUUGACCAUAGAACAUGCGC	-0.133 ± 0.5	-2.27 ± 0.2
CCCAGAUAAUGGCACUCUCAA	-0.57 ± 0.39	-0.306 ± 0.12
CAUCCCUUGCAUGGUGGAGGGU	0.67 ± 0.24	0.53 ± 0.0024
CUCCUGACUCCAGGUCCUGUGU	1.44 ± 0.61	1.21 ± 0.14

Sequence	NF-kB luciferase reporter activity (TNF 0 ng/mL)	NF-kB luciferase reporter activity (TNF 40 ng/mL)
GAGGUUGUCCGUGGUGAGUUCG	-0.468 ± 0.88	-2.08 ± 0.48
UAUGGCUUUUCAUUCCUAUGUG	-0.314 ± 0.58	-0.369 ± 0.0092
AACACACCUGGUUAACCUCUUU	-1.14 ± 0.07	0.254 ± 0.15
AAUAAUACAUGGUUGAUCUUU	-0.785 ± 0.09	0.0536 ± 0.043
AAAGUGCUGCGACAUUUGAGCGU	-0.434 ± 0.93	-1.06 ± 0.19
UCAGUCUCAUCUGCAAAGAAG	2.97 ± 0.59	1.58 ± 0.083
AUUCUGCAUUUUUAGCAAGU	3.61 ± 0.35	-0.325 ± 0.13
UUUUGCACCUUUUGGAGUGAA	1.1 ± 0.92	-0.163 ± 0.01
UUGUACAUGGUAGGCUUUCAUU	0.596 ± 0.28	0.433 ± 0.025
UCAAGAGCAAUAACGAAAAAUGU	0.225 ± 0.32	1.08 ± 0.015
CUACAAAGGGAAGCACUUUCUC	-1.11 ± 0.64	-1.63 ± 0.19
GCAAAGCACACGGCCUGCAGAGA	-0.287 ± 0.28	-0.658 ± 0.027
UCACAGUGAACCGGUCUCUUUC	-1.06 ± 0.48	0.0486 ± 0.083
UAAUACUGCCUGGUAAUGAUGAC	0.744 ± 0.84	1.37 ± 0.22
AGAGGUAGUAGGUUGCAUAGU	-0.2 ± 0.023	-1.24 ± 0.038
UGCUUCCUUUCAGAGGGU	1.34 ± 0.039	0.941 ± 0.075
UCAGUGCAUGACAGAACUUGGG	-0.378 ± 0.05	0.0929 ± 0.021
AACUGGCCUACAAAGUCCCAG	0.721 ± 0.19	-1.18 ± 0.17
UAUGUGGGAUGGUAAACCGCUU	0.166 ± 0.72	-1.21 ± 0.026
GUGAAAUGUUUAGGACCACUAG	0.966 ± 1.4	0.9884 ± 0.0031
AUAAGACGAGCAAAAAGCUUGU	-0.187 ± 0.52	-1.62 ± 0.032
UCAGUGCAUCACAGAACUUUGU	0.225 ± 0.32	0.0758 ± 0.04

Sequence	NF-kB luciferase reporter activity (TNF 0 ng/mL)	NF-kB luciferase reporter activity (TNF 40 ng/mL)
ACUGCCCUAAGUGCUCCUUCU	2.18 ± 0.41	0.608 ± 0.041
AGAGGCUGGCCGUGAUGAAUUC	0.912 ± 0.72	-1.96 ± 0.079
AAAGUGCUUCCUUUUAGAGGG	-1.32 ± 0.33	-0.578 ± 0.11
UCAGGCUCAGUCCCCUCCCGAU	-0.315 ± 0.14	-0.227 ± 0.1
UACAGUAUAGAUGAUGUACUAG	0.343 ± 0.35	0.659 ± 0.17
UAAUACUGCCGGGUAAUGAUGG	0.0214 ± 0.44	1.06 ± 0.17
UCUCCCAACCCUUGUACCAGUG	0.0398 ± 0.056	1.18 ± 0.046
GAGUGCCUUCUUUUGGAGCGU	-0.314 ± 0.76	-0.822 ± 0.14
CAAAGCGCUUCUCUUUAGAGUG	-0.207 ± 0.29	0.143 ± 0.13
UGAUUGUAGCCUUUUGGAGUAGA	-1.51 ± 0.46	-0.927 ± 0.034
CUCCAGAGGGAUGCACUUUCU	-1.38 ± 0.64	-1.09 ± 0.051
ACUUCACCUGGUCCACUAGCCGU	0.123 ± 0.3	0.86 ± 0.097
AUGCACCUGGGCAAGGAUUCUG	-0.197 ± 0.13	1.14 ± 0.15
AGUGGGGAACCCUUCCAUGAGGA	-0.516 ± 0.47	-2.85 ± 0.1
ACAAAGUGCUUCCCUUUAGAGUGU	-0.845 ± 0.78	-0.799 ± 0.018
ACUCAAAAUGGGGGCGCUUUCC	-0.706 ± 0.31	0.907 ± 0.14
UGCUGACUCCUAGUCCAGGGC	-1.7 ± 0.2	-3.27 ± 0.18
AUUCCUAGAAAUUGUUCAUA	0.0899 ± 0.13	0.855 ± 0.032
AAACAAACAUGGUGCACUUCUUU	-1.38 ± 0.64	-0.235 ± 0.099
UCCUGUACUGAGCUGCCCCGAG	0.874 ± 0.074	1.15 ± 0.17
CCUCUGGGCCCUUCCUCCAG	2.88 ± 0.89	-0.776 ± 0.1
UCCAGCAUCAGUGAUUUUGUUGA	0.425 ± 0.23	0.858 ± 0.14
